What all share (type): physicochemical
Data set [1] is described as follows: Humidity-fastness test, recorded article stored in thermo-hydrostat vessel. As to conditions: Reference Example printed article; 30° C., 80% RH, 1 week. As to the method:
(§1) Reddish purple color square patches of 1 cm×1 cm were printed on a recording medium (trade name: PR-101; manufactured by Canon Inc.) using the above two types of ink on an ink-jet printer, trade name: BJ-F 870; manufactured by Canon Inc. The color patches of Example 2 were heat treated at 120° C. for 1 minute for retro-Diels-Alder reaction of the compound 7 and converted into cyan color patch. The resultant color patches of Example 2 and Reference Example were tested for their light-fastness, gas-fastness, water-fastness and moisture-fastness.
The obtained recorded article was stored in a thermo-hydrostat vessel at 30° C., 80% RH for 1 week, drawn from the vessel and dried, and its change in density before and after the test was determined. • A: Density reduction rate of 1% or less • B: Density reduction rate of 2 to 4% • C: Density reduction rate of 5% or more.

Data set [2] in a line: Light-fastness test of printed colour patch with xenon fade meter. As to conditions: Reference Example printed article; 70 Kl×, 520 hours, 24° C., 60% RH. As to the method:
as §1
Light-exposure-fastness test was conducted with a xenone fade meter in accordance with the following test conditions. This was to test fastness of an image mimicking sunlight entering through a window in a room.
• Irradiation Intensity: 70 Kl×testing duration 520 hours • Temperature/humidity conditions in a testing vessel: 24° C., 60% RH • Filter: soda lime (outer), borosilicate (inner)
The light-fastness was evaluated as follows: • A: Density remaining rate of 90% or more • B: Density remaining rate of 89 to 80% • C: Density remaining rate of 79% or less (Gas-fastness)

Data set [3] can be described thus: Gas-fastness test of printed colour patch with gas corrosion tester. As to conditions: Reference Example printed article; mixed gas, 72 hours, 24° C., 60% RH. As to the method: as §1
Gas-exposure-fastness testing was conducted with a gas corrosion tester under the following test conditions (ANSI/ISA-S71.04-1985). This was to test fastness of an image assuming the effects of various gases in a room.
• Exposing gas composition: H2S: 50 ppb, SO2: 300 ppb, NO2: 1250 ppb, Cl2: 10 ppb, O3: 1200 ppb • Testing duration: 72 hours, Temperature/humidity conditions in a testing vessel: 24° C., 60% RH
The gas-fastness was evaluated as follows: • A: Density remaining rate of 90% or more • B: Density remaining rate of 89 to 80% • C: Density remaining rate of 79% or less (Water-fastness)

Data set [4] in a line: Water-fastness test, recorded article immersed in city water. As to conditions: Reference Example printed article; city water 5 minutes. As to the method:
as §1
The obtained recorded article was immersed in city water for 5 minutes, drawn up from the water and dried, and its change in density before and after the test was determined. • A: Density reduction rate of 1% or less. • B: Density reduction rate of 2 to 4% • C: Density reduction rate of 5% or more (Humidity-fastness)

Turning to C.I. Direct Blue 199 [DBL-199], the Humidity-fastness entry in data set [1] is recorded as “B (Density reduction rate of 2 to 4%)”. The Light-fastness result in data set [2] is “A (Density remaining rate of 90% or more)”. Besides, the Gas-fastness result in data set [3] is “C (Density remaining rate of 79% or less)”. Also, the Water-fastness entry in data set [4] was “C (Density reduction rate of 5% or more)”.

These data come from US7211120B2, “Method for forming a pattern of an organic semiconductor film” (Canon Kabushiki Kaisha, priority 2002, dated 2007).
